Experimental data taken from patent US4605641A, “Synthetic vasoactive intestinal peptide analogs” (Hoffmann-La Roche Inc., priority 1984, dated 1986).

Columns and labels:
[1] = test system: Human Bronchial Smooth Muscle; test: Relaxation of isolated human bronchial smooth muscle rings; assay type: cell-based; details: human bronchial smooth muscle; relative to VIP (1-28) = 100%
Description: Human bronchial smooth muscle or intra-pulmonary arteries were obtained from surgical section or autopsy from Overlook Hospital, Summit, N.J. Airway or vascular rings were suspended by two 30 gauge stainless steel wires in a 10 ml jacket tissue bath and attached via 4-0 silk thread to a Grass forcer displacement transducer (model FT030C, Grass Instrument Co., Quincy, MA), for isometric recording of tension. The smooth muscle was bathed in modified Kreb's solution of the following composition: NaCl, 120 mM; KCl, 4.7 mM; CaCL2, 2.5 mM; MgSO4.7H2 O; 1.2 mM; NaHCO3, 25 mM; KH2 PO4 monobasic, 1.2 mM; and dextrose, 10 mM. Tissue baths were maintained at 37.5° C. and constantly bubbled with 95% O2 and 5% CO2. Responses were recorded on a 8 channel and 4 channel Hewlett-Packard (model 7702B and 7754A, respectively) recorder (Hewlett Packard, Paramus, NJ). All tissues were placed under a resting tension (airway, 1.5 g; vascular, 1 g) which was determined to be near optimal in preliminary experiments. Frequent readjustments of tension were required during the 120-180 min. stabilization period which followed. Tissues were rinsed at 15 min. intervals. Vascular tissues were primed once with phenylephrine (10^-5 M) and washed for an additional hour. Steady state contractions of vacular tissues were obtained with phenylephrine (10^-5 M) while airway tissues were precontracted with histamine (3×10^-4 M).
Cumulative concentration response curves were obtained for each tissue by successive […] in the bath concentration of VIP or potential VIP agonists according to the method of VanRossum noted above. Only one cumulative dose response curve was obtained on a single piece of tissue. To minimize variability between tissues, relaxant responses were expressed as a percentage of the maximum response obtainable to papaverine (vascular, 10^-4 M=100%) or isoproterenol (airway, 10^-4 M=100%) added at the end of the concentration response curve. […] Responses obtained from four tissues were pooled and EC50 values were determined by linear regression.

[2] = test system: guinea pig trachea smooth muscle; test: Bronchodilator (relaxant) effect on isolated guinea pig tracheal rings; assay type: cell-based; details: for Relative Potency: guinea pig trachea, relative to VIP = 100%; for EC50: guinea pig tracheal rings, relaxation as % of maximum response to VIP 10^-6 M, three tissues pooled, linear regression, read-out: EC50 (M), agonist activity, bronchodilator effect

EC50 [2] | SMILES | Rel. Potency [1] | Relative Potency [2]
6.4e-09 M | CCCC[C@H](NC(=O)[C@H](CCC(N)=O)NC(=O)[C@H](CCCCN)NC(=O)[C@H](CCCNC(=N)N)NC(=O)[C@H](CC(C)C)NC(=O)[C@H](CCCNC(=N)N)NC(=O)[C@@H](NC(=O)[C@H](Cc1ccc(O)cc1)NC(=O)[C@H](CC(N)=O)NC(=O)[C@H](CC(=O)O)NC(=O)[C@@H](NC(=O)[C@H](Cc1ccccc1)NC(=O)[C@@H](NC(=O)[C@H](C)NC(=O)[C@H](CC(=O)O)NC(=O)[C@H](CO)NC(=O)[C@@H](N)Cc1c[nH]cn1)C(C)C)[C@@H](C)O)[C@@H](C)O)C(=O)N[C@@H](C)C(=O)N[C@H](C(=O)N[C@@H](CCCCN)C(=O)N[C@@H](CCCCN)C(=O)N[C@@H](Cc1ccc(O)cc1)C(=O)N[C@@H](CC(C)C)C(=O)N[C@@H](CC(N)=O)C(=O)N[C@@H](CO)C(=O)N[C@H](C(=O)N[C@@H](CC(C)C)C(=O)N[C@@H](CC(N)=O)C(N)=O)[C@@H](C)CC)C(C)C [(Nle^17)--VIP, (Nle^17)VIP] | 215% | 156%
5e-09 M | CCCC[C@H](NC(=O)[C@H](CCC(N)=O)NC(=O)[C@H](CCCCN)NC(=O)[C@H](CCCNC(=N)N)NC(=O)[C@H](CC(C)C)NC(=O)[C@H](CCCN)NC(=O)[C@@H](NC(=O)[C@H](Cc1ccc(O)cc1)NC(=O)[C@H](CC(N)=O)NC(=O)[C@H](CC(=O)O)NC(=O)[C@@H](NC(=O)[C@H](Cc1ccccc1)NC(=O)[C@@H](NC(=O)[C@H](C)NC(=O)[C@H](CC(=O)O)NC(=O)[C@H](CO)NC(=O)[C@@H](N)Cc1c[nH]cn1)C(C)C)[C@@H](C)O)[C@@H](C)O)C(=O)N[C@@H](C)C(=O)N[C@H](C(=O)N[C@@H](CCCCN)C(=O)N[C@@H](CCCCN)C(=O)N[C@@H](Cc1ccc(O)cc1)C(=O)N[C@@H](CC(C)C)C(=O)N[C@@H](CC(N)=O)C(=O)N[C@@H](CO)C(=O)N[C@H](C(=O)N[C@@H](CC(C)C)C(=O)N[C@@H](CC(N)=O)C(N)=O)[C@@H](C)CC)C(C)C [(Orn^12, Nle^17)--VIP, (Orn^12, Nle^17)VIP] | 195% | 200%
